Where two headings read alike, the source gives them in different places.
Assays:
Solubility properties = assay type: physicochemical
[1] = Acute toxicity in mice, oral LD50 (method of Miller & Tainter); details: mouse, in vivo, mortality determined 48 hours after administration
Method: The chemical compounds previously described were submitted to toxicity tests. It was determined in mice by oral administration and was calculated in accordance with the method of MILLER & TAINTER. It is generally low and greater than 1000 mg/kg.

carrageenin edema = test: Carrageenin edema test in rats (antiinflammatory); assay type: in vivo; details: for change in vivo at 30 mg/kg / change in vivo at 50 mg/kg / change in vivo at 100 mg/kg / change in vivo at 200 mg/kg: Rattus norvegicus
Method: The antiinflammatory properties were shown by the carrageenin edema test in rats, the products having been administered orally 1 hour before the intrapodal injection of 0.05 ml of a 2% suspension of carrageenin; the volume of the rat's paw was measured by plethysmoscopy 3, 4 and 6 hours afterwards.
The experiment concerned for each lot […]; one lot of animals receiving only the vehicle (2 ml/100 g of Tween + water) which served for the administration of the products, constituted the control lot. The following table sets forth the results obtained: […]

[2] = test system: writhings induced by acetic acid; test: Writhing test, acetic acid (analgetic); assay type: in vivo, male mouse; details: 200 mg/kg by mouth, t + 60 to t + 70 min
Method: The administration of the compounds is effected by mouth at the time t. […] The determination of the writhings is effected from t + 60 min. to t + 70 min. The vehicle used for the administration of the products is a 5% solution of Tween 80 in 0.9% NaCl which will serve as control.

total blood cholesterol = test: Total blood cholesterol in rats on a normal diet (hypocholesterolemizing); assay type: in vivo; details: 300 mg/kg oral, 4 consecutive days; 5th day, fasted 16 hours
Method: One lot of rats served as control.
The sampling was effected on the 5th day after 16 hours fasting, by cardiac puncture and the total blood cholesterol determination was effected by the Liebermann-Burchardt colorimetric method.

With C=C(CC(=O)c1ccc(-c2ccccc2Cl)cc1)C(=O)O [F 1379, 2-methylene 4-oxo 4-(4'-orthochlorophenylphenyl) butyric acid] the “Solubility in NN-dimethyl acetamide” value (Solubility properties; dimethyl acetamide) was 25%, the “Solubility in dimethyl sulfoxide” value (Solubility properties; dimethyl sulfoxide) was 20% and the “Solubility in ethyl alcohol” value (Solubility properties; ethyl alcohol / ethanol / alcohol) was 1%. For the same molecule, the Solubility in water (Solubility properties; water, in words, listed as Example 6) was “insoluble”, the LD50 at 48 h [1] was 1500 mg/kg and the “% increase in volume of the paw, cumulative (m)” value (shortened to “% increase in volume of the paw”) (carrageenin edema; 30 mg/kg oral) was 179,6%. For the same molecule, the “Action, cumulative” value (carrageenin edema; 30 mg/kg oral) was -11,7%, the “% increase in volume of the paw” value (carrageenin edema; 50 mg/kg oral) was 106,1% and the “Action, cumulative” value (carrageenin edema; 50 mg/kg oral) was -44,4%. The “% increase in volume of the paw” value (carrageenin edema; 100 mg/kg oral) was 83,6%, the “Action, cumulative” value (carrageenin edema; 100 mg/kg oral) was -56,2% and the “% increase in volume of the paw” value (carrageenin edema; 200 mg/kg oral) was 77,5%. The “Action, cumulative” value (carrageenin edema; 200 mg/kg oral) was -59,4%, the change in vivo at 30 mg/kg (carrageenin edema; 30 mg/kg oral, + 3 hrs, read-out: % increase in volume of the paw, mean (m)) was 58.4% and the change in vivo at 30 mg/kg (carrageenin edema; 30 mg/kg oral, + 3 hrs, read-out: Action (variation of paw volume increase vs controls)) was -17.6%. For the same molecule, the change in vivo at 30 mg/kg (carrageenin edema; 30 mg/kg oral, + 4 hrs, read-out: % increase in volume of the paw, mean (m)) was 60.1%, the change in vivo at 30 mg/kg (carrageenin edema; 30 mg/kg oral, + 4 hrs, read-out: Action (variation of paw volume increase vs controls)) was -9.6% and the change in vivo at 30 mg/kg (carrageenin edema; 30 mg/kg oral, + 6 hrs, read-out: % increase in volume of the paw, mean (m)) was 61.1%. It also gave a change in vivo at 30 mg/kg (carrageenin edema; 30 mg/kg oral, + 6 hrs, read-out: Action (variation of paw volume increase vs controls)) of -7%, a change in vivo at 50 mg/kg (carrageenin edema; 50 mg/kg oral, + 3 hrs, read-out: % increase in volume of the paw, mean (m)) of 24.4% and a change in vivo at 50 mg/kg (carrageenin edema; 50 mg/kg oral, + 3 hrs, read-out: Action (variation of paw volume increase vs controls)) of -58.2%. For the same molecule, the change in vivo at 50 mg/kg (carrageenin edema; 50 mg/kg oral, + 4 hrs, read-out: % increase in volume of the paw, mean (m)) was 34.4%, the change in vivo at 50 mg/kg (carrageenin edema; 50 mg/kg oral, + 4 hrs, read-out: Action (variation of paw volume increase vs controls)) was -47% and the change in vivo at 50 mg/kg (carrageenin edema; 50 mg/kg oral, + 6 hrs, read-out: % increase in volume of the paw, mean (m)) was 47.4%. For the same molecule, the change in vivo at 50 mg/kg (carrageenin edema; 50 mg/kg oral, + 6 hrs, read-out: Action (variation of paw volume increase vs controls)) was -29.7%, the change in vivo at 100 mg/kg (carrageenin edema; 100 mg/kg oral, + 3 hrs, read-out: % increase in volume of the paw, mean (m)) was 18.7% and the change in vivo at 100 mg/kg (carrageenin edema; 100 mg/kg oral, + 3 hrs, read-out: Action (variation of paw volume increase vs controls)) was -67.9%. The change in vivo at 100 mg/kg (carrageenin edema; 100 mg/kg oral, + 4 hrs, read-out: % increase in volume of the paw, mean (m)) was 26.1%, the change in vivo at 100 mg/kg (carrageenin edema; 100 mg/kg oral, + 4 hrs, read-out: Action (variation of paw volume increase vs controls)) was -59.9% and the change in vivo at 100 mg/kg (carrageenin edema; 100 mg/kg oral, + 6 hrs, read-out: % increase in volume of the paw, mean (m)) was 38.8%. The change in vivo at 100 mg/kg (carrageenin edema; 100 mg/kg oral, + 6 hrs, read-out: Action (variation of paw volume increase vs controls)) was -42.5%, the change in vivo at 200 mg/kg (carrageenin edema; 200 mg/kg oral, + 3 hrs, read-out: % increase in volume of the paw, mean (m)) was 19.6% and the change in vivo at 200 mg/kg (carrageenin edema; 200 mg/kg oral, + 3 hrs, read-out: Action (variation of paw volume increase vs controls)) was -66.4%. The change in vivo at 200 mg/kg (carrageenin edema; 200 mg/kg oral, + 4 hrs, read-out: % increase in volume of the paw, mean (m)) was 25.1%, the change in vivo at 200 mg/kg (carrageenin edema; 200 mg/kg oral, + 4 hrs, read-out: Action (variation of paw volume increase vs controls)) was -61.3% and the change in vivo at 200 mg/kg (carrageenin edema; 200 mg/kg oral, + 6 hrs, read-out: % increase in volume of the paw, mean (m)) was 32.8%. The change in vivo at 200 mg/kg (carrageenin edema; 200 mg/kg oral, + 6 hrs, read-out: Action (variation of paw volume increase vs controls)) was -51.3%, the “% Decrease (of writhings)” value [2] was 18,4% and the “Mean No. of Writhings” value [2] was 31,8. For the same molecule, the “Total blood cholesterol, M” value (total blood cholesterol) was 0,62.
